# Results as given in patent US20240279611A1, “EXOSOME PRODUCTION PROMOTING AGENT AND EXOSOME PRODUCTION PROMOTING METHOD” (FULLSTEM CO., LTD., priority 2021, published 2024).
# System: adipose-derived mesenchymal stem cells (ADSC)
# Assay: Amount of exosomes produced from ADSC, measured with Exo Counter (CD81 sandwich immunoassay) after excluding single factors
# Type: cell-based
# Settings: 48-hour culture in DMEM F12 on nonwoven fabric; one factor excluded from the eight factors of Table 1, compared with all eight added; CD81 on exosome surface detected in culture supernatant; FIG. 1
# Experimental: 4×10^4 adipose-derived mesenchymal stem cells (ADSC) were seeded in each well. A nonwoven fabric (3D, BioNOCII, CESCO BIOENGINEERING CO., LTD. in non-adhesive 24 well plate (PrimeSurface (registered trademark) Sumitomo Bakelite Co., Ltd.) was used for cell culture. A basal medium was 1.5 ml of 10% FBS/DMEM F12 (Sigma-Aldrich). The number of days of culture was 6. Starting from Day 2, 1.5 ml of medium was exchanged daily, and the amount of sugar consumed in the used culture medium was measured.
# Next, in the cell culture for 48 hours on Day 7 and Day 8, DMEM F12 was used as a medium so as to collect exosomes. In this 48-hour culture, 10% ExoFBS (Funakoshi Co., Ltd.) was added in Test #1. ExoFBS is a product from which bovine-derived exosomes are removed; therefore, influence on an exosome research is reduced.
# In Test #3 of the 48-hour culture, only factor A was excluded from the eight factors shown in Table 1, and the other factors were added. In Test #4 of the 48-hour culture, only factor B was excluded from the eight factors shown in Table 1, and the other factors were added. In Test #5 of the 48-hour culture, only factor C was excluded from the eight factors shown in Table 1, and the other factors were added. In Test #6 of the 48-hour culture, only factor D was excluded from the eight factors shown in Table 1, and the other factors were added. In Test #7 of the 48-hour culture, only factor E was excluded from the eight factors shown in Table 1, and the other factors were added. In Test #8 of the 48-hour culture, only factor F was excluded from the eight factors shown in Table 1, and the other factors were added. In Test #9 of the 48-hour culture, only factor G was excluded from the eight factors shown in Table 1, and the other factors were added. In Test #10 of the 48-hour culture, only factor H was excluded from the eight factors shown in Table 1, and the other factors were added.
# The amount of exosomes produced from ADSC was measured with Exo Counter (Kenwood), using 50 μl each from 1.5 ml of the collected culture supernatant. Exo Counter detects exosomes by sandwich immunoassay using disc and nanobeads antibodies in a surface antigen-specific manner. CD81 on the exosome surface was detected to quantify the exosome amount.
row,Compound,effect of the factor on the amount of exosomes produced
1,"OC[C@H]1O[C@H](O[C@H]2O[C@H](CO)[C@@H](O)[C@H](O)[C@H]2O)[C@H](O)[C@@H](O)[C@@H]1O [trehalose, Trehalose]",promoted the production of exosomes
2,EGF [6045 Da protein consisting of 53 amino acid residues and three intramolecular disulfide bonds; ligand of epidermal growth factor receptor],promotes the production of exosomes
3,IL-1β,promoted the production of exosomes
4,TNFα,inhibited the production of exosomes
